Source: the NIST ThermoML archive (doi:10.1016/j.jct.2006.05.008)
± gives the expanded uncertainty stated by the source.

Experiment: molar heat capacity at constant pressure
Details: 101.33 kPa, Small (less than 1 g) adiabatic calorimetry

CCCCn1cc[n+](C)c1.[Br-] [1-butyl-3-methylimidazolium bromide]
Details	molar heat capacity at constant pressure [J/K/mol]
5 K, Crystal	0.594 ± 0.036
5.112 K, Crystal	0.6398 ± 0.033
5.416 K, Glass	1.391 ± 0.048
5.455 K, Crystal	0.7976 ± 0.035
5.698 K, Glass	1.608 ± 0.044
5.764 K, Crystal	0.9598 ± 0.039
6.014 K, Glass	1.871 ± 0.055
6.078 K, Crystal	1.144 ± 0.042
6.368 K, Glass	2.187 ± 0.061
6.428 K, Crystal	1.37 ± 0.046
6.758 K, Glass	2.559 ± 0.068
6.809 K, Crystal	1.648 ± 0.044
7.151 K, Glass	2.969 ± 0.075
7.192 K, Crystal	1.957 ± 0.057
7.546 K, Glass	3.418 ± 0.081
7.578 K, Crystal	2.288 ± 0.061
7.943 K, Glass	3.889 ± 0.088
7.966 K, Crystal	2.656 ± 0.068
8.343 K, Glass	4.396 ± 0.096
8.356 K, Crystal	3.052 ± 0.075
8.743 K, Glass	4.921 ± 0.1
8.747 K, Crystal	3.473 ± 0.081
9.141 K, Crystal	3.927 ± 0.088
9.142 K, Glass	5.507 ± 0.11
9.535 K, Crystal	4.4 ± 0.094
9.542 K, Glass	6.116 ± 0.12
9.931 K, Crystal	4.904 ± 0.1
9.941 K, Glass	6.777 ± 0.13
10 K, Crystal	5 ± 0.1
10.43 K, Crystal	5.581 ± 0.11
10.45 K, Glass	7.669 ± 0.15
11.04 K, Crystal	6.447 ± 0.12
11.06 K, Glass	8.866 ± 0.16
11.65 K, Crystal	7.367 ± 0.14
11.68 K, Glass	9.609 ± 0.17
12.26 K, Crystal	8.338 ± 0.15
12.33 K, Glass	10.33 ± 0.18
12.88 K, Crystal	9.361 ± 0.16
12.97 K, Glass	11.38 ± 0.19
13.49 K, Crystal	10.43 ± 0.18
13.59 K, Glass	12.45 ± 0.2
14.11 K, Crystal	11.52 ± 0.19
14.22 K, Glass	13.57 ± 0.22
14.73 K, Crystal	12.65 ± 0.2
14.85 K, Glass	14.68 ± 0.23
15 K, Crystal	13.15 ± 0.21
15.46 K, Crystal	14.04 ± 0.22
15.59 K, Glass	16.03 ± 0.24
16.3 K, Crystal	15.65 ± 0.23
16.44 K, Glass	17.61 ± 0.26
17.14 K, Crystal	17.33 ± 0.25
17.29 K, Glass	19.2 ± 0.27
17.98 K, Crystal	19.01 ± 0.27
18.14 K, Glass	20.83 ± 0.29
18.82 K, Crystal	20.74 ± 0.28
18.99 K, Glass	22.44 ± 0.3
19.66 K, Crystal	22.48 ± 0.3
19.84 K, Glass	24.05 ± 0.31
20 K, Crystal	23.22 ± 0.3
20.8 K, Crystal	24.92 ± 0.31
20.98 K, Glass	26.32 ± 0.33
22.23 K, Crystal	27.96 ± 0.33
22.44 K, Glass	29.08 ± 0.34
23.67 K, Crystal	30.95 ± 0.35
23.89 K, Glass	31.88 ± 0.35
25 K, Crystal	33.71 ± 0.36
25.11 K, Crystal	33.93 ± 0.36
25.34 K, Glass	34.61 ± 0.36
26.55 K, Crystal	36.89 ± 0.37
26.79 K, Glass	37.3 ± 0.37
28 K, Crystal	39.85 ± 0.37
28.25 K, Glass	39.98 ± 0.37
29.46 K, Crystal	42.71 ± 0.37
29.71 K, Glass	42.64 ± 0.37
30 K, Crystal	43.79 ± 0.32
30.91 K, Crystal	45.58 ± 0.33
31.17 K, Glass	45.28 ± 0.33
32.37 K, Crystal	48.31 ± 0.34
32.64 K, Glass	47.85 ± 0.34
33.83 K, Crystal	50.92 ± 0.36
34.1 K, Glass	50.34 ± 0.35
35 K, Crystal	52.97 ± 0.37
35.29 K, Crystal	53.48 ± 0.37
35.56 K, Glass	52.74 ± 0.37
36.75 K, Crystal	55.93 ± 0.38
37.02 K, Glass	55.06 ± 0.38
38.21 K, Crystal	58.33 ± 0.39
38.48 K, Glass	57.36 ± 0.39
39.67 K, Crystal	60.64 ± 0.41
39.95 K, Glass	59.57 ± 0.4
40 K, Crystal	61.09 ± 0.41
41.38 K, Crystal	63.18 ± 0.42
41.66 K, Glass	62.09 ± 0.41
43.35 K, Crystal	66.08 ± 0.43
43.62 K, Glass	64.96 ± 0.43
45 K, Crystal	68.34 ± 0.44
45.33 K, Crystal	68.81 ± 0.44
45.59 K, Glass	67.7 ± 0.44
47.31 K, Crystal	71.45 ± 0.46
47.56 K, Glass	70.47 ± 0.45
49.28 K, Crystal	73.96 ± 0.47
49.53 K, Glass	73.04 ± 0.47
50 K, Crystal	74.81 ± 0.47
51.25 K, Crystal	76.33 ± 0.48
51.5 K, Glass	75.54 ± 0.48
53.22 K, Crystal	78.7 ± 0.49
53.47 K, Glass	77.99 ± 0.49
55.2 K, Crystal	80.87 ± 0.5
55.43 K, Glass	80.39 ± 0.5
57.18 K, Crystal	82.96 ± 0.51
57.4 K, Glass	82.69 ± 0.51
59.15 K, Crystal	84.96 ± 0.53
59.37 K, Glass	85.02 ± 0.53
60 K, Crystal	85.89 ± 0.5
61.12 K, Crystal	87.04 ± 0.53
61.34 K, Glass	87.33 ± 0.54
63.1 K, Crystal	89.03 ± 0.55
63.31 K, Glass	89.56 ± 0.55
65.08 K, Crystal	90.98 ± 0.55
65.29 K, Glass	91.73 ± 0.56
67.06 K, Crystal	92.73 ± 0.56
67.27 K, Glass	93.78 ± 0.57
69.04 K, Crystal	94.46 ± 0.57
69.25 K, Glass	95.85 ± 0.58
70 K, Crystal	95.2 ± 0.58
71.02 K, Crystal	96.12 ± 0.58
71.23 K, Glass	97.82 ± 0.59
73.01 K, Crystal	97.71 ± 0.59
73.21 K, Glass	99.78 ± 0.6
75 K, Crystal	99.35 ± 0.6
75.2 K, Glass	101.73 ± 0.61
76.99 K, Crystal	101.08 ± 0.6
77.19 K, Glass	103.84 ± 0.62
78.99 K, Crystal	102.78 ± 0.61
79.19 K, Glass	105.86 ± 0.63
79.88 K, Crystal	103.13 ± 0.62
80 K, Crystal	103.3 ± 0.58
80.98 K, Crystal	104.4 ± 0.62
81.18 K, Glass	107.71 ± 0.64
81.99 K, Glass	108.36 ± 0.64
82.98 K, Crystal	105.64 ± 0.63
83.34 K, Crystal	105.95 ± 0.63
84.53 K, Glass	110.36 ± 0.65
84.99 K, Crystal	106.91 ± 0.64
85.34 K, Crystal	107.22 ± 0.64
86.53 K, Glass	112.03 ± 0.66
87.34 K, Crystal	108.66 ± 0.64
88.52 K, Glass	113.8 ± 0.67
89.34 K, Crystal	110.09 ± 0.65
90 K, Crystal	110.5 ± 0.67
90.52 K, Glass	115.58 ± 0.66
91.34 K, Crystal	111.54 ± 0.65
92.52 K, Glass	117.14 ± 0.67
93.34 K, Crystal	112.75 ± 0.65
94.51 K, Glass	118.71 ± 0.67
95.34 K, Crystal	114.08 ± 0.66
96.52 K, Glass	120.45 ± 0.68
97.35 K, Crystal	115.46 ± 0.66
98.52 K, Glass	121.83 ± 0.69
99.35 K, Crystal	116.72 ± 0.67
100 K, Crystal	117.1 ± 0.67
100.53 K, Glass	123.29 ± 0.69
101.36 K, Crystal	118.12 ± 0.67
102.54 K, Glass	125.09 ± 0.7
103.37 K, Crystal	119.58 ± 0.68
104.55 K, Glass	126.48 ± 0.71
105.39 K, Crystal	120.44 ± 0.68
106.56 K, Glass	127.9 ± 0.71
107.41 K, Crystal	121.58 ± 0.69
108.57 K, Glass	129.45 ± 0.72
109.43 K, Crystal	122.78 ± 0.69
110 K, Crystal	123.1 ± 0.67
110.59 K, Glass	130.89 ± 0.72
111.44 K, Crystal	123.99 ± 0.7
112.61 K, Glass	132.26 ± 0.73
113.47 K, Crystal	125.16 ± 0.7
114.64 K, Glass	133.7 ± 0.73
115.5 K, Crystal	126.62 ± 0.71
116.67 K, Glass	135.05 ± 0.74
117.53 K, Crystal	127.63 ± 0.7
118.69 K, Glass	136.36 ± 0.75
119.57 K, Crystal	128.57 ± 0.71
120 K, Crystal	128.8 ± 0.75
120.72 K, Glass	137.61 ± 0.75
121.6 K, Crystal	129.71 ± 0.72
